“And” between values parts separate entries of the source, which are not always exact repeats. Equal values may be shown once. Read-outs that look alike come from different tables or passages of the source. Where no end group is shown, it is not given here.
Columns and labels:
CD4+ PBMC = format: cell-based, human; settings: IFNγ ELISPOT, CD8-depleted; for Human influenza epitope-specific immune response, donor 3501: PBMC rested five days
DRB1*0101 = molecular target: T1, DRB1*0101 (Homo sapiens, UniProt P01903+P01911, A100R/D57E/F55L/F60I/F76Y/I96L/L162R/M171V/P40L/Q125E/R42F/V115G/Y59C); test: biochemical; format: binding
T1 construct: made in house; host or cells: EBV-transformed homozygous human B cell lines, transfected fibroblasts or single-allele 721.221 transfectants

DRB1*0401 = molecular target: T2, DRB1*0401 (Homo sapiens, UniProt P01903+P01911, A100K/A169T/F76Y/I96L/K127E/L162R/M171V/N62H/P40V/Q125Y/R42H/S133A/S149N/S66Y/V115G/V209L/W38E); test: biochemical; format: binding; settings: read-out: IC50 nM to purified HLA DRB1*0401
T2 construct: made in house; host or cells: EBV-transformed homozygous human B cell lines, transfected fibroblasts or single-allele 721.221 transfectants

DRB1*0404 = DRB1*0404 (Homo sapiens, UniProt P01903+P01911, A100R/A169T/F76Y/I96L/K127E/L162R/M171V/N62H/P40V/Q125Y/R42H/S133A/S149N/S66Y/V209L/W38E); test: biochemical; format: binding; settings: IC50 nM to purified HLA DRB1*0404
DRB1*0405 = DRB1*0405 (Homo sapiens, UniProt P01903+P01911, A100R/A169T/D86S/F76Y/I96L/K127E/L162R/M171V/N62H/P40V/Q125Y/R42H/S133A/S149N/S66Y/V115G/V209L/W38E); test: biochemical; format: binding; settings: read-out: IC50 nM to purified HLA DRB1*0405
DRB1*0301 = molecular target: T3, DRB1*0301 (Homo sapiens, UniProt P01903+P01911, A100K/A102G/A103R/A169T/F55Y/I96L/K41T/L162R/M171V/P40S/Q125H/Q178H/Q39Y/R42S/S66N/T106N/T262R/W38E/Y61H); test: biochemical; format: binding
T3 construct: made in house; host or cells: EBV-transformed homozygous human B cell lines, transfected fibroblasts or single-allele 721.221 transfectants

DRB1*1302 = DRB1*1302 (Homo sapiens, UniProt P01903+P01911, A100E/A169T/K41T/L162R/M171V/P40S/Q125H/Q178H/Q39Y/Q99D/R42S/S66N/T262R/V115G/W38E/Y61H); test: biochemical; format: binding; settings: read-out: IC50 nM to purified HLA DRB1*1302
[1] = five day expansion with peptide pool
[2] = IC50 nM to purified HLA DRB1*0101

Sequence of DRB1*1302 (P01903 26-254 limits assumed, other chains not shown): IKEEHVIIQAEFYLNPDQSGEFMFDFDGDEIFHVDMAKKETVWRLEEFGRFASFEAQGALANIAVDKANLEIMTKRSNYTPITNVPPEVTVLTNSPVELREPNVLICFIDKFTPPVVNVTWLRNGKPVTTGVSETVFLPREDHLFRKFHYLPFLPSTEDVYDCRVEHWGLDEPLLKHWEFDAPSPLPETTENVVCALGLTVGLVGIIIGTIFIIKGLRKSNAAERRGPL
T3 sequence (P01903 26-254, other chains not shown): as the sequence (P01903 26-254 limits assumed, other chains not shown) above

Compound	Human influenza epitope-specific immune response, donor 3501 (CD4+ PBMC)	IC50 (DRB1*0101; [2])	IC50 (DRB1*0401)	IC50 (DRB1*0405)	further results
CC[C@H](C)[C@H](NC(=O)[C@H](CC(C)C)NC(=O)[C@H](C)NC(=O)[C@H](CO)NC(=O)[C@H](CCCNC(=N)N)NC(=O)[C@H](C)NC(=O)[C@H](CC(C)C)NC(=O)[C@H](Cc1ccccc1)NC(=O)[C@@H](NC(=O)[C@H](CC(C)C)NC(=O)[C@@H](N)CC(=O)O)[C@@H](C)CC)C(=O)N[C@@H](CC(C)C)C(=O)N[C@@H](CCCNC(=N)N)C(=O)NCC(=O)N[C@@H](CO)C(=O)O [Flu.NP.258]					Human influenza epitope-specific immune response, donor 6018 (CD4+ PBMC; [1]): Positive (Donors were considered positive for a peptide if the number of spots was over 3 times background as determined by responses to irrelevant peptides (non influenza))
CC[C@H](C)[C@H](NC(=O)[C@H](CCC(N)=O)NC(=O)CNC(=O)[C@H](C)N)C(=O)N[C@@H](CO)C(=O)N[C@H](C(=O)N[C@@H](CCC(N)=O)C(=O)N1CCC[C@H]1C(=O)N[C@H](C(=O)N[C@@H](Cc1ccccc1)C(=O)N[C@@H](CO)C(=O)N[C@H](C(=O)N[C@@H](CCC(N)=O)C(=O)N[C@@H](CCCNC(=N)N)C(=O)N[C@@H](CC(N)=O)C(=O)O)C(C)C)[C@@H](C)O)C(C)C [Flu.NP.406]	Positive (Donors were considered positive for a peptide if the number of spots was over 3 times background as determined by responses to irrelevant peptides (non influenza))				
CC[C@H](C)[C@H](NC(=O)[C@H](C)NC(=O)CNC(=O)[C@@H](N)CCC(=O)O)C(=O)N[C@H](C(=O)NCC(=O)N[C@@H](CCC(=O)O)C(=O)N[C@H](C(=O)N[C@@H](CO)C(=O)N1CCC[C@H]1C(=O)N[C@@H](CC(C)C)C(=O)N1CCC[C@H]1C(=O)N[C@@H](CO)C(=O)N[C@@H](CC(C)C)C(=O)N1CCC[C@H]1C(=O)O)[C@@H](C)CC)C(C)C [Flu.NS1.156]	Positive (Donors were considered positive for a peptide if the number of spots was over 3 times background as determined by responses to irrelevant peptides (non influenza))	85 nM	48 nM and 27 nM		IC50 (DRB1*0101; IC50 nM to purified HLA DRB1*0101, Table 4): 85 nM; IC50 (DRB1*0401; Table 4): 48 nM; IC50 (DRB1*0404): 13 nM
CSCC[C@H](NC(=O)[C@H](CO)NC(=O)[C@@H](NC(=O)[C@H](Cc1ccccc1)NC(=O)[C@H](CC(N)=O)NC(=O)[C@@H](N)C(C)C)C(C)C)C(=O)N[C@@H](CCC(=O)O)C(=O)N[C@@H](Cc1ccccc1)C(=O)N[C@@H](CO)C(=O)N[C@@H](CC(C)C)C(=O)N[C@H](C(=O)N[C@@H](CC(=O)O)C(=O)N1CCC[C@H]1C(=O)N[C@@H](CCCNC(=N)N)C(=O)N[C@@H](CC(C)C)C(=O)O)[C@@H](C)O [Flu.PA.521]				7700 nM	
CC[C@H](C)[C@H](NC(=O)[C@H](CC(C)C)NC(=O)[C@H](CS)NC(=O)[C@H](CCC(=O)O)NC(=O)[C@@H](N)CCC(=O)O)C(=O)N[C@@H](CC(N)=O)C(=O)N[C@@H](CC(=O)O)C(=O)N1CCC[C@H]1C(=O)N[C@@H](Cc1c[nH]c2ccccc12)C(=O)N[C@H](C(=O)N[C@@H](CC(C)C)C(=O)N[C@@H](CC(C)C)C(=O)N[C@@H](CC(N)=O)C(=O)N[C@@H](C)C(=O)N[C@@H](CO)C(=O)O)C(C)C [Flu.PA.694]		34 nM		15000 nM	IC50 (DRB1*0301): 618 nM; IC50 (DRB1*0404): 183 nM
CSCC[C@H](NC(=O)CNC(=O)[C@H](CCSC)NC(=O)[C@@H](N)CCSC)C(=O)N[C@@H](Cc1ccccc1)C(=O)N[C@@H](CC(N)=O)C(=O)N[C@@H](CCSC)C(=O)N[C@@H](CC(C)C)C(=O)N[C@@H](CO)C(=O)N[C@H](C(=O)N[C@H](C(=O)N[C@@H](CC(C)C)C(=O)NCC(=O)N[C@H](C(=O)N[C@@H](CO)C(=O)O)C(C)C)C(C)C)[C@@H](C)O [Flu.PB1.411]	Positive (Donors were considered positive for a peptide if the number of spots was over 3 times background as determined by responses to irrelevant peptides (non influenza))				Human influenza epitope-specific immune response, donor 716 (CD4+ PBMC; [1]): Positive (Donors were considered positive for a peptide if the number of spots was over 3 times background as determined by responses to irrelevant peptides (non influenza)); Human influenza epitope-specific immune response, donor 753 (CD4+ PBMC; [1]): Positive (Donors were considered positive for a peptide if the number of spots was over 3 times background as determined by responses to irrelevant peptides (non influenza)); Human influenza epitope-specific immune response, donor 6018 (CD4+ PBMC; [1]): Positive (Donors were considered positive for a peptide if the number of spots was over 3 times background as determined by responses to irrelevant peptides (non influenza))
CC[C@H](C)[C@H](NC(=O)CNC(=O)[C@H](CCC(=O)O)NC(=O)[C@H](Cc1c[nH]cn1)NC(=O)[C@H](CC(N)=O)NC(=O)[C@@H]1CCCN1C(=O)[C@H](C)NC(=O)[C@H](CC(N)=O)NC(=O)[C@@H](NC(=O)[C@@H](NC(=O)[C@H](CC(C)C)NC(=O)[C@H](C)NC(=O)[C@H](Cc1ccccc1)NC(=O)[C@@H](N)CC(=O)O)[C@@H](C)CC)C(C)C)C(=O)N[C@@H](CCC(N)=O)C(=O)O [Flu.PB1.449]	Positive (Donors were considered positive for a peptide if the number of spots was over 3 times background as determined by responses to irrelevant peptides (non influenza))				
CSCC[C@H](NC(=O)[C@H](CO)NC(=O)[C@H](Cc1ccccc1)NC(=O)[C@H](CC(N)=O)NC(=O)[C@H](C)NC(=O)[C@@H](NC(=O)[C@H](Cc1ccccc1)NC(=O)CNC(=O)[C@@H](N)Cc1ccc(O)cc1)C(C)C)C(=O)N[C@@H](CCC(=O)O)C(=O)N[C@@H](CC(C)C)C(=O)N1CCC[C@H]1C(=O)N[C@@H](CO)C(=O)N[C@@H](Cc1ccccc1)C(=O)NCC(=O)O [Flu.PB1.502]	Positive (Donors were considered positive for a peptide if the number of spots was over 3 times background as determined by responses to irrelevant peptides (non influenza))				
CC[C@H](C)[C@H](NC(=O)CNC(=O)[C@@H](N)CCCNC(=N)N)C(=O)N[C@@H](CC(C)C)C(=O)N[C@@H](CCC(=O)O)C(=O)N[C@@H](CC(=O)O)C(=O)N[C@@H](CCC(=O)O)C(=O)N[C@@H](CCC(N)=O)C(=O)N[C@@H](CCSC)C(=O)N[C@@H](Cc1ccc(O)cc1)C(=O)N[C@@H](CCC(N)=O)C(=O)N[C@@H](CCCCN)C(=O)N[C@@H](CS)C(=O)N[C@@H](CS)C(=O)N[C@@H](CC(N)=O)C(=O)O [Flu.PB1.683]			5740 nM	3280 nM	IC50 (DRB1*0301): 43 nM; IC50 (DRB1*1302): 18000 nM
CC[C@H](C)[C@H](NC(=O)[C@H](CCCNC(=N)N)NC(=O)[C@H](C)NC(=O)[C@H](CCCNC(=N)N)NC(=O)[C@H](CO)NC(=O)[C@@H](N)C(C)C)C(=O)N[C@@H](CC(=O)O)C(=O)N[C@@H](C)C(=O)N[C@@H](CCCNC(=N)N)C(=O)N[C@H](C(=O)N[C@@H](CC(=O)O)C(=O)N[C@@H](Cc1ccccc1)C(=O)N[C@@H](CCC(=O)O)C(=O)N[C@@H](CO)C(=O)NCC(=O)O)[C@@H](C)CC [Flu.PB1.722]				3010 nM	
ALQLLFEVEQEIRTF [Flu.NS2.178]		3490 nM		8870 nM	IC50 (DRB1*0404): 2150 nM
GSYFFGDNAEEYDN [Flu.NP.488]			1950 nM	65 nM	
MVAYMLERELVRKTR [Flu.PB2.205]		97 nM	166 nM	5540 nM	IC50 (DRB1*1302): 2080 nM

Source: patent US9511134B2, “Inducing immune responses to influenza virus using polypeptide and nucleic acid compositions” (priority 2006, dated 2016)
